Assay results reported in paper PMC6158189, “A pharmacological probe identifies cystathionine β-synthase as a new negative regulator for ferroptosis” (Cell Death & Disease, 2018).

Tests used:
[1] = system: HepG2 cells; assay: rescue of CH004-induced loss of viability by cell death inhibitors (CellTiter 96); type: cell-based, human; details: 100 µM DFO, 48 h or 72 h
Protocol: To measure cell viability and cytotoxicity, HepG2, HEK293T, Huh-7, H22, Panc-28, HCT116 and MDA-MB-231 cells were seeded at a density of ~ 2 × 10^4 cells per well in 96-well plates (Coring, NY, USA) for one day, followed by incubation with DMSO or various concentrations of tested compound for indicated times. Then, the cells were collected to measure the cell viability using the CellTiter 96® Aqueous One Solution Cell Proliferation Assay (Promega, G3581) according to the standard protocols.
(§1) Figure S15. The mode of actions for CH004 in cells. […] Indicated HEK293T stable cell lines were treated with CH004 at a concentration of 10 µM for 24 h, and the cell viability was then measured using the CellTiter96® Aqueous One Solution Cell Proliferation Assay (Promega). Means ± SDs (n=3). (B-C) CH004 or erastin triggers ferroptosis in mouse embryonic fibroblasts (MEF). WT MEF cells were treated with CH004 or erastin at indicated concentrations in the presence or the absence of 500 µM DFO for 24 h before measuring the lipid ROS with 2 μM BODIPY® 581/591 C11 (Materials and methods). […] The cell viability was accordingly quantified using the CellTiter96® Aqueous One Solution Cell Proliferation Assay (Promega) and the results were shown as percentages of DMSO (control, 100%). […]

[2] = system: HepG2 cells; assay: lipid ROS (BODIPY 581/591 C11, flow cytometry); type: cell-based, human; details: 24 h; for accumulation of lipid ROS in HepG2 cells: up to 15 μM
Protocol: (§2) To detect lipid peroxidation upon treatment with CH004, HepG2 cells or mouse embryonic fibroblasts (MEF) were seeded in 12-well plates with ~ 1.8 × 10^5 cells per well for 24 h. After treatment with the inhibitor for another 24 h, cells were stained with BODIPY® 581/591 C11 (Invitrogen) for 1 h at a final concentration of 2 μM at 37 °C[57]. The cells were then resuspended in an appropriate amount of PBS after being washed once with PBS. Lipid peroxidation, i.e., lipid ROS, was analyzed by detection of the fluorescence using an LSR Fortessa flow cytometer. The data were recorded at 530/30 nm (green fluorescent) and 670/30 nm (red fluorescent) wavelengths after excitation at 488 nm. A minimum of 20000 events was used for the analysis. All the experiments were independently repeated twice in triplicate.
Figure S15. The mode of actions for CH004 in cells. […] Indicated HEK293T stable cell lines were treated with CH004 at a concentration of 10 µM for 24 h, and the cell viability was then measured using the CellTiter96® Aqueous One Solution Cell Proliferation Assay (Promega). Means ± SDs (n=3). (B-C) CH004 or erastin triggers ferroptosis in mouse embryonic fibroblasts (MEF). WT MEF cells were treated with CH004 or erastin at indicated concentrations in the presence or the absence of 500 µM DFO for 24 h before measuring the lipid ROS with 2 μM BODIPY® 581/591 C11 (Materials and methods). […] Erastin at micromolar concentrations were incubated with HepG2 cells for 24 h before measuring the lipid ROS (see above and Materials and methods). […] Means ± SDs (n=3). […] CH004 or erastin at a concentration of 20 µM was incubated with HepG2 cells for 48 h or 72 h in the presence or the absence of 100 µM DFO. The cell viability was accordingly quantified using the CellTiter96® Aqueous One Solution Cell Proliferation Assay (Promega) and the results were shown as percentages of DMSO (control, 100%). Means ± SDs (n=3). All the experiments were independently repeated at least twice and one representative result is present. Table S1 The inhibitory effects of CH004 on purified hCBS, hCSE and hDDC.

[3] = system: HepG2 cells; assay: cell viability (CellTiter 96 Aqueous One); type: cell-based, human; details: 20 μM, 48 h or 72 h
Protocol: Fig. 4 CH004 arrests the cell cycle at the S phase. a CH004 reduces the cell viability of HEK293T and HepG2 cells. HEK293T or HepG2 cells were treated with indicated concentrations of CH004 for 24 h before the cell number was analyzed using the CellTiter96® Aqueous One Solution Cell Proliferation Assay (Promega, Materials and Methods). The means at each concentration of one representative experiment are shown as percentages of DMSO (control, 100%). Means ± SDs (n = 3). b Overexpression of hCBS or knock-down of hCBS counteracts the growth inhibition exerted by CH004 in HEK293T cells. Indicated HEK293T stable cell lines were treated with the CH004 or DMSO for 24 h. Then, the cell viability was quantified with the CellTiter 96® Aqueous One Solution Cell Proliferation Assay under the standard protocol (Promega). The means at each concentration are shown as percentages of their respective DMSO controls (100%). Means ± SDs (n = 3). The efficacy for CBS overexpression and knock-down in HEK293T cells was determined by Western blotting using an anti-CBS antibody (3E1, 1:2000; Abnova). c CH004 induces cell death in HEK293T and HepG2 cells. […] The means of percentages of dead cells (DMSO, 100%) from three independent samples are shown in d. Means ± SDs (n = 3). e, f Pharmacological inhibition or genetic knock-down of hCBS in HEK293T cells arrests the cell cycle at S phase. HEK293T cells were incubated with indicated compounds for 12 h, and the DNA content was quantified with propidium iodide to analyze the cell cycle distribution by flow cytometry (e). The cell cycle distributions for HEK293T-shNT and HEK293T-shCBS cells were accordingly analyzed and are shown in f. One representative diagram is shown for each condition. The mean percentages of various cell phases from three independent samples are shown in the respective right panels. Means ± SDs (n = 3). […]
Figure S15. […] Indicated HEK293T stable cell lines were treated with CH004 at a concentration of 10 µM for 24 h, and the cell viability was then measured using the CellTiter96® Aqueous One Solution Cell Proliferation Assay (Promega). […]

[4] = system: mouse embryonic fibroblasts (MEF); assay: lipid ROS (BODIPY 581/591 C11, flow cytometry); type: cell-based; details: low micromolar concentrations, 24 h
Protocol: as §2
as §1, with “(MEF).” for “(MEF). WT MEF cells were treated with CH004 or erastin at indicated concentrations in the presence or the absence of 500 µM DFO for 24 h before measuring the lipid ROS with 2 μM BODIPY® 581/591 C11 (Materials and methods).”

Compound	rescue of cell death caused by 20 µM CH004 [1]	reduction of lipid ROS caused by 10 μM CH004 ([2]; 500 μM deferoxamine, HepG2)	cell death in HepG2 cells [3]	accumulation of lipid ROS in HepG2 cells [2]	accumulation of lipid ROS in HepG2 cells ([2]; listed as Erastin)	induction of ferroptosis (lipid ROS) in MEF [4]
CC(=O)N(O)CCCCCNC(=O)CCC(=O)N(O)CCCCCNC(=O)CCC(=O)N(O)CCCCCN [deferoxamine]	partially rescues	almost completely reduced				
CCOc1ccccc1-n1c(C(C)N2CCN(C(=O)COc3ccc(Cl)cc3)CC2)nc2ccccc2c1=O (stereo not drawn) [erastin, reference compound]			did not trigger	did not trigger	does not induce ferroptosis	~ 3 fold
